Converted amounts (≈) assume the structure as drawn. “And” between values parts separate entries of the source, which are not always exact repeats. Identical values can stand only once.
Experiments:
[1] = test system: Aspergillus niger NBRC6342; assay: Test for determining minimum concentration for inhibition of growth (agar plate dilution method), Aspergillus niger; type: cell-based; conditions: for MIC value (mM/L) Aspergillus niger NBRC6342: MIC on a molar basis, based on the molecular weights; for MIC value: concentration of active ingredient, potato dextrose agar, strain not given in Table 2
Source text: (§1) (Test for Determining Minimum Concentration for Inhibition of Growth)
(§2) For the test samples, 3 types of samples were used; i.e., the BIT/Zn salt obtained in Example 1 (in the form of a powder containing 79.7% of active ingredients), a BIT material/SC formulation (i.e., Bestcide-NS manufactured by Nippon Soda Co., Ltd. containing 33% of active ingredients), and ZnO (zinc oxide) of 99.0% or greater (manufactured by Wako Pure Chemical Industries, Ltd.). Evaluations were made by conducting an agar plate dilution method using a potato dextrose agar medium. Two fungal strains; i.e., Aspergillus niger NBRC6342 and Cladosporium cladosporioides NBRC6348, were used as microorganisms for the test, and the BIT/Zn salt, BIT and ZnO were used at a concentration of 50 to 1,000 mg/L. The results are shown in Table 2 and Table 3. It should be noted that in Table 3, the results on the analysis of minimum inhibitory concentration (MIC) based on the molecular weights (i.e., MIC values on a molar basis) are shown.

[2] = Thermal stability test; type: physicochemical
Procedure: A test was carried out on the thermal stability of the BIT/Zn salt obtained in Example 1 and of BIT. As a result, BIT broke down at 300° C. or less, whereas the BIT/Zn salt remained stable even at 400° C.

[3] = test system: ear auricle of a mouse; assay: Local lymph node proliferation assay using a mouse (ear auricle irritation); type: in vivo; conditions: for Thickness of ear auricle: 50 μL/mouse per day on both ears, once a day for 3 days, day of measurement not given; for Extent of hyperplasia: ear auricle thickness on day 3 minus day 1, 0.1 mm or greater = irritating; for General symptoms: observation during administration period
Source text: (Local Lymph Node Proliferation Assay using a Mouse)
(1) Administration Solution
(A) An administration solution A prepared by suspending the BIT/Zn salt obtained in Example 1 in a mixed solvent, which was composed of N,N-dimethylacetamide, acetone and ethanol and which contained the respective component at a ratio of 4:3:3 (volume ratio) (hereafter, frequently referred to as “DAE”), so as to achieve a 5% by weight solution.
(B) An administration solution B prepared by dissolving BIT in DAE so as to achieve a 5% by weight solution.
(2) Application of an Administration Solution
12.5 μL of the administration solutions A and B were respectively applied inside and outside the ear auricle of a mouse using a micropipette. This process was carried out for both ears, once a day, and for 3 days. The applied dose was 50 μL/mouse for one day.
(3) Measurement of Body Weight
Regarding the mouse provided for the experiment, the body weight thereof was measured just before the application on day 0 of the experiment, on day 3 of the experiment, and just before the dissection thereof (on day 6).
(4) Measurement of Ear Auricle Thickness
Regarding the mouse provided for the experiment, the ear auricle thickness thereof was measured on day 1 and on day 3 of the experiment, using a digital thickness gage manufactured by Teclock Corporation.
The extent of hyperplasia was calculated by the formula: (ear auricle thickness on day 3 of the experiment)—(ear auricle thickness on day 1 of the experiment). When the extent of hyperplasia was 0.1 mm or greater, it was evaluated as “irritating”.
(5) Observation of Symptoms
During the administration period, the observations were made once just before the administration and once 3 hours after the administration. During other periods, the observations were made once a day. The presence and absence of erythema in the ear auricle was observed just before the administrations on day 1, day 2 and on day 3 of the experiment, and the observations made were evaluated in scores as 0 to 16 grades.
Method for Evaluating Mouse Eears
Grades 0-9: Evaluated as possibly not irritating to humans.
Grades 10-15: Evaluated as possibly slightly irritating to humans.
Grades greater than grade 15: Evaluated as possibly irritating to humans.

[4] = test system: Cladosporium cladosporioides NBRC6348; assay: Test for determining minimum concentration for inhibition of growth (agar plate dilution method), Cladosporium cladosporioides; type: cell-based; conditions: MIC on a molar basis, based on the molecular weights
Source text: as §1, §2

[5] = test system: Staphylococcus aureus NBRC 12732; assay: Antibacterial test using a coated film (JIS Z 2801), Staphylococcus aureus; type: cell-based
Procedure: (§3) Regarding the BIT/Zn salt obtained in Example 1, an antibacterial test was carried out using a coated film.
(§4) For the samples, 2 types of samples were used; i.e., A) the BIT/Zn salt (in the form of a powder containing 79.7% of active ingredients) and B) a BIT material/SC formulation (i.e., Bestcide-NS manufactured by Nippon Soda Co., Ltd. containing 15.0% of active ingredients). For the coating material, an aqueous acrylic emulsion coating material manufactured by Nippe Home Products Co., Ltd. (a preservative-free product) was used.
(§5) (1) Preparation of Test Specimen
(§6) To a blank coating material, either A) 0.019% by weight of the BIT/Zn salt or B) 0.1% by weight of the BIT technical product/SC formulation was added, and the resultant was then stirred and mixed. The coating material to which the BIT/Zn salt was added was further subjected to an ultrasonic treatment to prepare a uniform dispersion.
(§7) Subsequently, the obtained drug-added coating materials were applied onto both sides ([…] for each side) of a sterilized filter paper having a size of 50×50 mm, and the resultant was cured at room temperature for 24 hours. Test specimens where no drug was added were also prepared in the same manner.
The test was carried out in accordance with JIS Z 2801. In other words, two strains of bacteria were used for the test; i.e., Escherichia coli NBRC 3972 (Escherichia coli) and Staphylococcus aureus NBRC 12732 (Staphylococcus aureus), and their cultures preincubated in an NA medium were diluted with a 500-fold diluted NB liquid medium to prepare bacterial suspensions for inoculation. 0.4 ml of the bacterial suspension was inoculated onto each test specimen (i.e., 50×50 mm sized filter paper with a coated film thereon), and the resultant was covered with a covering film (which was already sterilized and having a size of 45×45 mm). […] Thereafter, the sample surface and the covering film were washed using 10 ml of an SCDLP medium, and the number of bacterial cells per 1 ml of the washed out liquid was calculated by counting the number of colonies using an NA medium. […]

[6] = test system: Escherichia coli NBRC 3972; assay: Antibacterial test using a coated film (JIS Z 2801), Escherichia coli; type: cell-based
Procedure: as §3, §4, §5, §6, §7
The test was carried out in accordance with JIS Z 2801. In other words, two strains of bacteria were used for the test; i.e., Escherichia coli NBRC 3972 (Escherichia coli) and Staphylococcus aureus NBRC 12732 (Staphylococcus aureus), and their cultures preincubated in an NA medium were diluted with a 500-fold diluted NB liquid medium to prepare bacterial suspensions for inoculation. 0.4 ml of the bacterial suspension was inoculated onto each test specimen (i.e., 50×50 mm sized filter paper with a coated film thereon), and the resultant was covered with a covering film (which was already sterilized and having a size of 45×45 mm). The prepared test specimen was put in a petri dish and incubated for 24 hours in a thermo-hygrostat at a temperature of 35±1° C. and a relative humidity of 95%. Thereafter, the sample surface and the covering film were washed using 10 ml of an SCDLP medium, and the number of bacterial cells per 1 ml of the washed out liquid was calculated by counting the number of colonies using an NA medium.
A coated film obtained using a blank coating material was used as a control.
The number of bacterial cells was observed, just after the inoculation (A), and after 24 hours of incubation (B).
2) Requirements for a Valid Test
1. {(A−B)/A}×100≦90 [A: just after the inoculation, B: after 24 hours of incubation]
2. Results of the viable cell count obtained in (A) were within a range from 1.0 to 5.0×10^5 cells per petri dish.
3. Results of the viable cell count obtained in the blank (untreated) were 1.0×10^3 or more cells per petri dish. […]

[7] = coated film, 24 hours at 35±1° C., 0.019% by weight BIT/Zn salt or 0.1% by weight BIT/SC in coating material
[8] = larger values indicate stronger antibacterial activity
[9] = logarithm of viable cell count after 24 hours

Structure (SMILES) | MIC value (mM/L) Aspergillus niger NBRC6342 [1] [mM/L] | MIC value [1] | Thermal stability (temperature of breakdown) [2] [°C] | Thickness of ear auricle ([3]; 5% by weight in DAE) [mm] | Extent of hyperplasia ([3]; 5% by weight in DAE) | General symptoms ([3]; 5% by weight in DAE) | Grade for erythema ([3]; 5% by weight in DAE, score 0 to 16, 0-9 possibly not irritating, 10-15 slightly irritating, >15 irritating to humans) | Evaluation of irritation ([3]; criterion: extent of hyperplasia 0.1 mm or greater) | MIC value (mM/L) Cladosporium cladosporioides NBRC6348 [4] [mM/L] | Activity level ([1]; statement covers both fungal strains) | Number of viable cells, Staphylococcus aureus [5, 7] | Antibacterial activity, Staphylococcus aureus [5, 8] | Logarithmic value, Staphylococcus aureus [5, 9] | Number of viable cells, Escherichia coli [6, 7] | Antibacterial activity, Escherichia coli [6, 8] | Logarithmic value, Escherichia coli [6, 9] | Antibacterial activity compared with BIT ([6]; statement covers both bacterial strains of Table 4)
O=c1[nH]sc2ccccc12 [BIT, 1,2-benzoisothiazolin-3-one] | 1.3 | 200 mg/L (≈ 1320 µM) | ≤ 300 | 0.39 | 0.1 mm and 0.10 mm | no abnormality was observed | 16 | irritating | <0.3 | – | – | – | – | – | – | – | –
O=c1[n-]sc2ccccc12.O=c1[n-]sc2ccccc12.[Zn+2] [BIT/Zn salt, zinc salt of BIT] | 2.0 | 750 mg/L | > 400 | 0.34 | 0.04 mm | attachment of white powder on the ear auricle was observed 3 hours after the administration | – | – | <0.1 | satisfactory to be put into practice | <10 Number of cells per petri dish | 3.6 | 1.0 | <10 Number of cells per petri dish | 4.9 | 1.0 | same level of antibacterial activity as that of BIT
[O]=[Zn] [ZnO, zinc oxide] | >12.3 | >1,000 mg/L | – | – | – | – | – | – | 6.10 | – | – | – | – | – | – | – | –
